Reference: US10898475B2, “Bach1 inhibitors in combination with Nrf2 activators and pharmaceutical compositions thereof” (vTv Therapeutics LLC, priority 2014, dated 2021)

Tested on: HMOX1 in Normal Human Lung Fibroblasts (NHLF)
Test: HMOX1 Protein Expression (immunostaining, fold induction or % positive cells over DMSO)
Conditions: for Hill slope of DMF dose response curves in Table 2: % Positive HMOX
[1] = Homo sapiens, Fibroblast, read-out: Fold Induction of HMOX

Description: Normal Human Lung Fibroblasts (NHLF) obtained from Lonza were cultured in T-225 flasks using conditions recommended by the vendor (FGM-2 medium supplemented with 2% fetal bovine serum (FBS), fibroblast growth factor (hFGF-B) 0.5 mL, insulin 0.5 mL, and gentamicin/amphotericin-B 0.5 mL at 37° C. in a humidified atmosphere of 5% CO2).
For assays, cell were thawed and placed into culture in T225 flasks, grown to be 80% confluent, and harvested as described by the vendor. NHLF cells (2.5×10^4 cells per well) were plated in 384 well optilux tissue culture (BD) plates and incubated overnight in media prior to exposure to compound. Cells were incubated with DMSO or various combinations of either an Nrf2 Activator (DMF (dimethyl fumarate)/CDDO-Me) or a Bach1 Inhibitor for 16-18 hr. Cells were then fixed and permeabilized prior to incubation with HMOX1 antibody (abcam; 1:300 dilution in 1% BSA in PBS) for 1 hour. Cells were then washed and incubated with a solution of fluorescently-coupled goat anti-mouse antibody (Alexa 488 1:400 dilution Invitrogen) and Hoechst nuclear stain (1:2000; Invitrogen) in PBS containing 1% BSA for 1 hr. Immunostaining was detected using a GE InCell 2000 instrument at the following wavelengths: Hoechst Ex/Em 360/535 and Alexa 488 Ex/Em 480/535. Results were analyzed using GE InCell Analyzer software and represented as the increase fold of HMOX1 induction (Fold induction/FI) or the percentage of HMOX1 positive (% positive) cells over DMSO.

## COC(=O)[C@]12CCC(C)(C)C[C@H]1[C@H]1C(=O)C=C3[C@@]4(C)C=C(C#N)C(=O)C(C)(C)[C@@H]4CC[C@@]3(C)[C@]1(C)CC2 [Bardoxolone Methyl, methyl 2-cyano-3,12-dioxooleana-1,9(11)dien-28-oate, reference compound]
9.7 nM CDDO-Me alone
  increase HMOX1 (FIG. 1 bar B): 2.5 fold
CDDO-Me alone, greater than or equal to 156 nM
  induction of HMOX1 protein: 19 fold
[1]
  fold induction at 0.0024 µM: 1.31
  fold induction at 0.0048 µM: 1.59
  fold induction at 0.0097 µM: 2.53
  fold induction at 0.019 µM: 5
  fold induction at 0.039 µM: 8.48
  fold induction at 0.078 µM: 12.2
  fold induction at 0.156 µM: 19
  fold induction at 0.312 µM: 16.4

## CN(C)C(=O)CNC(=O)c1ccc2c(c1)nc(Nc1nc3ccc(C(F)(F)F)cc3s1)n2C [HPP-C, 1-Methyl-2-(6-trifluoromethyl-benzothiazol-2-ylamino)-1H-benzimidazole-5-carboxylic acid dimethylcarbamoylmethyl-amide]
Bach1 Inhibitor Conc. 0.019 uM
  Hill slope of DMF dose response curves in Table 2: 2.00
Bach1 Inhibitor Conc. 0.039 uM
  Hill slope of DMF dose response curves in Table 2: 1.80
Bach1 Inhibitor Conc. 0.078 uM
  Hill slope of DMF dose response curves in Table 2: 1.79
Bach1 Inhibitor Conc. 0.156 uM
  Hill slope of DMF dose response curves in Table 2: 0.83
Cpd. 0.019 uM, DMF 0 uM
  % Cells Positive HMOX: 3.60%
  Fold Induction of HMOX: 1.29 fold
Cpd. 0.019 uM, DMF 0.03 uM
  % Cells Positive HMOX: 1.18%
  Fold Induction of HMOX: 1.10 fold
Cpd. 0.019 uM, DMF 0.1 uM
  % Cells Positive HMOX: 2.37%
  Fold Induction of HMOX: 1.15 fold
Cpd. 0.019 uM, DMF 0.3 uM
  % Cells Positive HMOX: 6.49%
  Fold Induction of HMOX: 1.24 fold
Cpd. 0.019 uM, DMF 1 uM
  % Cells Positive HMOX: 10.18%
  Fold Induction of HMOX: 1.68 fold
Cpd. 0.019 uM, DMF 3 uM
  % Cells Positive HMOX: 51.54%
  Fold Induction of HMOX: 2.86 fold
Cpd. 0.019 uM, DMF 10 uM
  % Cells Positive HMOX: 94.22%
  Fold Induction of HMOX: 5.75 fold
Cpd. 0.019 uM, DMF 30 uM
  % Cells Positive HMOX: 84.20%
  Fold Induction of HMOX: 4.65 fold
Cpd. 0.039 uM, DMF 0 uM
  % Cells Positive HMOX: 2.31%
  Fold Induction of HMOX: 1.37 fold
Cpd. 0.039 uM, DMF 0.03 uM
  % Cells Positive HMOX: 5.74%
  Fold Induction of HMOX: 1.28 fold
Cpd. 0.039 uM, DMF 0.1 uM
  % Cells Positive HMOX: 6.82%
  Fold Induction of HMOX: 1.35 fold
Cpd. 0.039 uM, DMF 0.3 uM
  % Cells Positive HMOX: 12.76%
  Fold Induction of HMOX: 1.61 fold
Cpd. 0.039 uM, DMF 1 uM
  % Cells Positive HMOX: 23.54%
  Fold Induction of HMOX: 2.10 fold
Cpd. 0.039 uM, DMF 3 uM
  % Cells Positive HMOX: 68.03%
  Fold Induction of HMOX: 3.01 fold
Cpd. 0.039 uM, DMF 10 uM
  % Cells Positive HMOX: 94.66%
  Fold Induction of HMOX: 5.13 fold
Cpd. 0.039 uM, DMF 30 uM
  % Cells Positive HMOX: 90.40%
  Fold Induction of HMOX: 4.90 fold
Cpd. 0.078 uM, DMF 0 uM
  % Cells Positive HMOX: 7.12%
  Fold Induction of HMOX: 1.59 fold
Cpd. 0.078 uM, DMF 0.03 uM
  % Cells Positive HMOX: 5.99%
  Fold Induction of HMOX: 1.37 fold
Cpd. 0.078 uM, DMF 0.1 uM
  % Cells Positive HMOX: 8.24%
  Fold Induction of HMOX: 1.48 fold
Cpd. 0.078 uM, DMF 0.3 uM
  % Cells Positive HMOX: 16.20%
  Fold Induction of HMOX: 1.73 fold
Cpd. 0.078 uM, DMF 1 uM
  % Cells Positive HMOX: 37.74%
  Fold Induction of HMOX: 2.53 fold
Cpd. 0.078 uM, DMF 3 uM
  % Cells Positive HMOX: 81.81%
  Fold Induction of HMOX: 4.33 fold
Cpd. 0.078 uM, DMF 10 uM
  % Cells Positive HMOX: 97.16%
  Fold Induction of HMOX: 6.46 fold
Cpd. 0.078 uM, DMF 30 uM
  % Cells Positive HMOX: 96.15%
  Fold Induction of HMOX: 6.18 fold
Cpd. 0.156 uM, DMF 0 uM
  % Cells Positive HMOX: 28.56%
  Fold Induction of HMOX: 2.66 fold
Cpd. 0.156 uM, DMF 0.03 uM
  % Cells Positive HMOX: 22.08%
  Fold Induction of HMOX: 1.99 fold
Cpd. 0.156 uM, DMF 0.1 uM
  % Cells Positive HMOX: 33.12%
  Fold Induction of HMOX: 2.54 fold
Cpd. 0.156 uM, DMF 0.3 uM
  % Cells Positive HMOX: 49.95%
  Fold Induction of HMOX: 3.06 fold
Cpd. 0.156 uM, DMF 1 uM
  % Cells Positive HMOX: 66.67%
  Fold Induction of HMOX: 4.08 fold
Cpd. 0.156 uM, DMF 3 uM
  % Cells Positive HMOX: 88.98%
  Fold Induction of HMOX: 4.57 fold
Cpd. 0.156 uM, DMF 10 uM
  % Cells Positive HMOX: 100.00%
  Fold Induction of HMOX: 6.55 fold
Cpd. 0.156 uM, DMF 30 uM
  % Cells Positive HMOX: 84.03%
  Fold Induction of HMOX: 5.49 fold
Combination with DMF at concentrations below their maximum effect (Table 2)
  combination effect in terms of the % HMOX positive cells: additive or greater than additive
Upon increasing amounts of the Bach1 Inhibitor
  change of Hill slope of the DMF dose response curve (FIG. 5): reduced
